In US20140031296A1, “NEW SYNTHETIC PEPTIDES AND THEIR USE” (PERGAMUM AB, priority 2011, published 2014):

Tested on: TNF-α production in LPS stimulated THP-1 cells
Assay: Inhibition of TNF-α production in LPS stimulated THP-1 cells (ELISA)
Format: cell-based, human
Settings: 40 μM peptide, mean relative secretion, LPS-stimulated level without peptide = 100%, basal = 0%
Method: (§1) After 6 hours of incubation at +37° C., 5% CO2 and in a humid atmosphere, the cell supernatants were collected, centrifuged and kept frozen in −20° C. until analyzed for TNF-α content by ELISA (R&D Systems, Minneapolis, Minn., USA). The results are presented as mean relative secretion (%), with stimulated TNF-α level without peptide added set to 100% and basal secretion set to 0% (Table 2).
as §1, with “incubation,” for “incubation at +37° C., 5% CO2 and in a humid atmosphere,”, “centrifuged,” for “centrifuged”, “5).” for “2).”

Row | Sequence | TNF-α at 40 μM peptide (screen 1) | TNF-α at 40 μM peptide (screen 2)
1 | EATKCFQWQRNMRKVR [Peptide 158] | 91% | 
2 | CRLWRRRMRKVW [Peptide 233] |  | 90.7%
3 | CFLWRRSMRRLR [Peptide 236] |  | 94.4%
4 | LVKRLNRLWQFRKTAESQ [Peptide 216] |  | 121.9%
5 | GRRRRSVQWCA [Peptide 255] |  | 100.7%
6 | WFKCFQWQRNMRKVR [Peptide 243] |  | 113.1%
7 | QSLAEKLFWQLRNLRKVR [Peptide 221] |  | 94.4%
8 | QSAARTFKQWARNLRKTL [Peptide 210] |  | 101.0%
9 | VSQSEATKRFQWLRNLRKVL [Peptide 214] |  | 88.8%
10 | QSRATKRFQWLRNHRKVL [Peptide 208] |  | 130.2%
11 | CRLWRRNMRKVR [Peptide 229] |  | 108.5%
12 | QSEATKCFLWRRNMRKVR [Peptide 225] |  | 111.6%
13 | LRLWRRSMRKVW [Peptide 235] |  | 89.3%
14 | QSRATKRFQWHRNARKVL [Peptide 207] |  | 160.9%
15 | CFLWRRLMRKV [Peptide 237] |  | 89.2%
16 | QSEYTKRYQWLRNLRKVL [Peptide 204] |  | 96.9%
17 | QREARKRFQWLRNMTKVR [Peptide 201] |  | 128.6%
18 | QESARKQFRWLRNLTKVL [Peptide 202] |  | 90.3%
19 | LRTWRRLTRKVW [Peptide 234] |  | 102.0%
20 | TKCFLWRRNMRKVRG [Peptide 242] |  | 116.8%
21 | CFLWRRNMRKVR [Peptide 227] |  | 111.0%
22 | QSAKTACFLWRRNMRKVR [Peptide 226] |  | 108.7%
23 | WRRWLRKSVKRL [Peptide 247] |  | 88.2%
24 | QSEATKRFQWLRNLRKVL [Peptide 217] |  | 103.0%
25 | VWIVKKQVKRIK [Peptide 245] |  | 146.3%
26 | LVWIKRHIKKFK [Peptide 246] |  | 125.5%
27 | QREARKFRQWLRNMTKVR [Peptide 203] |  | 98.1%
